Key:
Assay type in all cases: biochemical
Settings in all cases: read-out: Activity of the protein kinase when treated with compound I-1 (% control)
[1] = molecular target: CK1γ2 (Homo sapiens, UniProt P78368); assay: Protein kinase assay ([γ-32P] ATP), CK1γ2
Experimental: (§1) In another set of experiments, the activities of the compounds described herein against various protein kinases were determined according to the methods reported in Hastie et al., Nature Protocols, 2006, 1, 968-971.
(§2) Enzyme dilution buffer. This buffer consisted of 50 mM Tris-HCl, pH 7.5, 0.1 mM EGTA, 1 mg ml^−1 bovine serum albumin and 0.1% (vol/vol) 2-mercaptoethanol.
(§3) 10× concentrated assay buffer. An assay buffer of 500 mM Tris-HCl, pH 7.5, 1 mM EGTA, and 100 mM magnesium acetate was used for assay of a wide variety of protein kinases. In some experiments, other cofactors were included (e.g., calcium ions and calmodulin were included for assay of calcium-calmodulindependent protein kinases).
(§4) 1 mM [γ-^32P] ATP. The specific activity of the [γ-^32P] ATP solution was 1×10^5 to 1×10^6 c.p.m. per nmol depending on what was needed to produce an optimal signal/noise ratio. […] To measure the concentration of ATP, a sample of such a stock solution was diluted to 20 μM, and the absorbance of the diluted sample was measured at 259 nm. The absorbance of a 20-μM stock solution of ATP at 259 nm was about 0.31. […] ATP to produce a radioactivity of 1×10^5 to 1×10^6 c.p.m. per nmol. […]
(§5) 13) Measure radioactivity in the samples by Cerenkov counting (e.g., without liquid scintillation fluid) in a liquid scintillation counter using a “^32P program”. […]

[2] = molecular target: CLK2 (Homo sapiens, UniProt P49760); assay: Protein kinase assay ([γ-32P] ATP), CLK2
Experimental: as §1, §2, §3, §4, §5

[3] = molecular target: EPH-B1 (Homo sapiens, UniProt P54762); assay: Protein kinase assay ([γ-32P] ATP), EPH-B1
Experimental: as §1, §2, §3, §4, §5

[4] = molecular target: FGF-R1 (Homo sapiens, UniProt P11362); assay: Protein kinase assay ([γ-32P] ATP), FGF-R1
Experimental: as §1, §2, §3, §4, §5

[5] = molecular target: IKKb (Homo sapiens, UniProt O14920); assay: Protein kinase assay ([γ-32P] ATP), IKKb
Experimental: as §1, §2, §3, §4, §5

[6] = molecular target: MAPKAP-K3 (Homo sapiens, UniProt Q16644); assay: Protein kinase assay ([γ-32P] ATP), MAPKAP-K3
Experimental: as §1, §2, §3, §4, §5

[7] = molecular target: MLK1 (Homo sapiens, UniProt P80192); assay: Protein kinase assay ([γ-32P] ATP), MLK1
Experimental: as §1, §2, §3, §4, §5

[8] = molecular target: PKCa (Homo sapiens, UniProt P17252); assay: Protein kinase assay ([γ-32P] ATP), PKCa
Experimental: as §1, §2, §3, §4, §5

[9] = molecular target: PKCγ (Homo sapiens, UniProt P05129); assay: Protein kinase assay ([γ-32P] ATP), PKCγ
Experimental: as §1, §2, §3, §4, §5

[10] = molecular target: TTK (Homo sapiens, UniProt P33981); assay: Protein kinase assay ([γ-32P] ATP), TTK
Experimental: as §1, §2, §3, §4, §5

[11] = 0.1 μM of compound I-1, DMSO control = 100%
[12] = 1 μM of compound I-1, DMSO control = 100%

Chain of EPH-B1 (P54762 18-984): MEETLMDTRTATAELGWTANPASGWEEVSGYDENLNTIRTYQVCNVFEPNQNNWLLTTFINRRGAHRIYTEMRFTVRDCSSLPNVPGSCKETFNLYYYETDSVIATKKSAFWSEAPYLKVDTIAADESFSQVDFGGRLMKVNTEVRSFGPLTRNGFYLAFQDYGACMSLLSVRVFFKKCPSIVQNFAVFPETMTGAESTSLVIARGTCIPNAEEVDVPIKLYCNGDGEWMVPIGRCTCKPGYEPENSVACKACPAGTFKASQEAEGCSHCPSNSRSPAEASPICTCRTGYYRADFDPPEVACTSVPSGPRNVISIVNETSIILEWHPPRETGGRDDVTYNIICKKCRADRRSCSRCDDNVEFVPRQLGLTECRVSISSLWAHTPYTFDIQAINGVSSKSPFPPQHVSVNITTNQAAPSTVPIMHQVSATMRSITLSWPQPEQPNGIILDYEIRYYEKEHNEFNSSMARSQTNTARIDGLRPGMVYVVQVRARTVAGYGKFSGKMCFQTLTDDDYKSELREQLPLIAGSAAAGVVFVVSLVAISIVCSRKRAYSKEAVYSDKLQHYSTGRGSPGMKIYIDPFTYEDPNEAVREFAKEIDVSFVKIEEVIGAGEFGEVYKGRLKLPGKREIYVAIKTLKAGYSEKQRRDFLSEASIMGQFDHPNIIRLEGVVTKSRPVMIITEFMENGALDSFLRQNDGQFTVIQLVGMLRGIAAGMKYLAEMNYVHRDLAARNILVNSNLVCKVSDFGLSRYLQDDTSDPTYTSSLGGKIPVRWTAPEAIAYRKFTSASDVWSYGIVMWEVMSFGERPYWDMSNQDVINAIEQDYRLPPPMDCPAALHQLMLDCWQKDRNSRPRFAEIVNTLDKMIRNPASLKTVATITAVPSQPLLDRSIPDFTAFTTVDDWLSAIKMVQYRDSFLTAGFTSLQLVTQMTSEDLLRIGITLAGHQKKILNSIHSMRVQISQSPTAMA
Chain of IKKb (O14920 whole entry): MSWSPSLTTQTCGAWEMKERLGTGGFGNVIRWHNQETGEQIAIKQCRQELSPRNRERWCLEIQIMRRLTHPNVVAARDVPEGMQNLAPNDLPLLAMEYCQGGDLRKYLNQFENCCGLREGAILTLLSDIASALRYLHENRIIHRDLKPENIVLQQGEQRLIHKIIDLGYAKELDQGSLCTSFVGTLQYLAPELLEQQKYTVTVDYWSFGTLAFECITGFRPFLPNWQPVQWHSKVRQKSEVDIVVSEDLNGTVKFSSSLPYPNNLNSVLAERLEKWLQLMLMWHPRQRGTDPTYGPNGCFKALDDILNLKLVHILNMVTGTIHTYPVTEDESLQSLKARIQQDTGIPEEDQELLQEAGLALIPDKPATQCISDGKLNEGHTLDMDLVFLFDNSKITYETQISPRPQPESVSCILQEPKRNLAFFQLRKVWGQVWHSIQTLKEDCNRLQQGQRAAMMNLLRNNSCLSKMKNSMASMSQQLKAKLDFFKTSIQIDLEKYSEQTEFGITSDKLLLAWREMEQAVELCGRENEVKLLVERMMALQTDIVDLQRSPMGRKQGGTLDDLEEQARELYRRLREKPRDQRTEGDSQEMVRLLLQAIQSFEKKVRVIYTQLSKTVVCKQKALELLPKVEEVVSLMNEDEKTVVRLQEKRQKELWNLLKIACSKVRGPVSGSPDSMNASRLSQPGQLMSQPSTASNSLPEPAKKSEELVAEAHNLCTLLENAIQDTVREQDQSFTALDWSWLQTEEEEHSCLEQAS
Chain of MAPKAP-K3 (Q16644 whole entry): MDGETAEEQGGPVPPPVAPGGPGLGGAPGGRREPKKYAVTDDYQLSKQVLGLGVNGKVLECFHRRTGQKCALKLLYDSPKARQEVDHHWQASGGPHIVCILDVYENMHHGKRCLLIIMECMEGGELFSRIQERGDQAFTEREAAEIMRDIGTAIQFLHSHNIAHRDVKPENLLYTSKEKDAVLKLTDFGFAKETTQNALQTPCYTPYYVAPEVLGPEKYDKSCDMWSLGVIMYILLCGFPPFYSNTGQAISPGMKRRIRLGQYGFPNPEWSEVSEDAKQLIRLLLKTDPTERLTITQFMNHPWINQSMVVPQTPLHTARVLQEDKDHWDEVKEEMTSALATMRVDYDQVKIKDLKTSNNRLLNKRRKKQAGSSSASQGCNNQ
Chain of CK1γ2 (P78368 whole entry): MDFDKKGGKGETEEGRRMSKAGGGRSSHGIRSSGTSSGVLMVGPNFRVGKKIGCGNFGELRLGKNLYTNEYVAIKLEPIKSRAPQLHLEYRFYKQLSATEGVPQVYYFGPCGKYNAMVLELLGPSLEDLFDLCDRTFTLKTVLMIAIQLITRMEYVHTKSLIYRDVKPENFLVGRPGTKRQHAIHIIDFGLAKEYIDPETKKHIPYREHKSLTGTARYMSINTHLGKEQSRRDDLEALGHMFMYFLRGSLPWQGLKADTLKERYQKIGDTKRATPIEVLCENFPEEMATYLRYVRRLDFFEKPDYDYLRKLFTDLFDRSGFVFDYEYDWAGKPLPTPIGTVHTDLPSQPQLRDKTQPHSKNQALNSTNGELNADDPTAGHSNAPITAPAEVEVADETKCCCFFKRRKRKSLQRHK
Chain of CLK2 (P49760 whole entry): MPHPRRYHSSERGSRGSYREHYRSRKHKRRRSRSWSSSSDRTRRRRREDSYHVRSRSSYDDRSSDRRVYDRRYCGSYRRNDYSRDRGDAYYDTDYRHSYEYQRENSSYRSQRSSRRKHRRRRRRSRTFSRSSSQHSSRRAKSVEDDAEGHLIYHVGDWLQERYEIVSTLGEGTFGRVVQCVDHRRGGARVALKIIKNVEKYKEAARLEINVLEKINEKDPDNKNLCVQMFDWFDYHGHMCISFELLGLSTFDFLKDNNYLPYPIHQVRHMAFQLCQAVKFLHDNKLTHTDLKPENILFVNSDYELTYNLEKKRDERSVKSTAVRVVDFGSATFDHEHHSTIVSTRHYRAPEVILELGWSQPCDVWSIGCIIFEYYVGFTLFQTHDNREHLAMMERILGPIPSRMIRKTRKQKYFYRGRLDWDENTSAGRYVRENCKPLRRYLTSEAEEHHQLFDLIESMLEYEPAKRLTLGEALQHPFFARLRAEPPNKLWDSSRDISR
Chain of FGF-R1 (P11362 22-822): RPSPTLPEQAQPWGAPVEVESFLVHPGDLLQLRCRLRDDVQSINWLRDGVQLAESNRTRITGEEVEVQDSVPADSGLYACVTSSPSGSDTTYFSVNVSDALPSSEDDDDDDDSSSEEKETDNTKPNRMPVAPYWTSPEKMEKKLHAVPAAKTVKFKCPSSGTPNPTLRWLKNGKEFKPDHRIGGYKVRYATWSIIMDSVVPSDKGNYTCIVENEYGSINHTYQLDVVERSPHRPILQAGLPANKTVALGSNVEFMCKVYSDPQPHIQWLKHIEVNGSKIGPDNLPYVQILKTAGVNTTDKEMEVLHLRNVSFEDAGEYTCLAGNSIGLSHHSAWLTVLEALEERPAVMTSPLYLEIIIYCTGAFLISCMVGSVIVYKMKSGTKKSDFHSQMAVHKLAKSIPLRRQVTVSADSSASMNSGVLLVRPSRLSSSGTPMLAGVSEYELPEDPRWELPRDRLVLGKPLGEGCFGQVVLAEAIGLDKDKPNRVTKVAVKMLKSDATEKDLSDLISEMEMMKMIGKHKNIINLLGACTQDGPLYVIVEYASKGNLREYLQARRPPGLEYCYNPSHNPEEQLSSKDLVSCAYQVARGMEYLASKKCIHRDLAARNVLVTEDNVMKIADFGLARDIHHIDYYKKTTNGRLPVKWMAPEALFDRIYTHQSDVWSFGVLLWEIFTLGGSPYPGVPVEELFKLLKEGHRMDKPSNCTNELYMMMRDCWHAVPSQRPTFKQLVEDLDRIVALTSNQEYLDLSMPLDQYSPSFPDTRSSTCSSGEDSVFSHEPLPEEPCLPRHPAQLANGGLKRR

Work on `Cc1cccc(C)c1NC(=O)N1C/C=C\COc2cccc(c2)Nc2cc1ncn2` [Compound I-1] yielded a remaining activity at 0.1 µM [1, 11] of 96%, a remaining activity at 1 µM [1, 12] of 100% and a remaining activity at 0.1 µM [2, 11] of 100%. For the same molecule, the remaining activity at 1 µM [2, 12] was 90%, the remaining activity at 0.1 µM [3, 11] was 40% and the remaining activity at 1 µM [3, 12] was 43%. For the same molecule, the remaining activity at 0.1 µM [4, 11] was 41%, the remaining activity at 1 µM [4, 12] was 12% and the remaining activity at 0.1 µM [5, 11] was 103%. It also gave a remaining activity at 1 µM [5, 12] of 77%, a remaining activity at 0.1 µM [6, 11] of 108% and a remaining activity at 1 µM [6, 12] of 89%. For the same molecule, the remaining activity at 0.1 µM [7, 11] was 60%, the remaining activity at 1 µM [7, 12] was 17% and the remaining activity at 0.1 µM [8, 11] was 101%. For the same molecule, the remaining activity at 1 µM [8, 12] was 91%, the remaining activity at 0.1 µM [9, 11] was 98% and the remaining activity at 1 µM [9, 12] was 92%. The remaining activity at 0.1 µM [10, 11] was 99% and the remaining activity at 1 µM [10, 12] was 79%.
